{"source": "patent US20230104477A1", "about": "“USE OF DEHYDROASCORBIC ACID AGAINST NEMATODE INFECTION IN PLANTS” (Universiteit Gent, priority 2019, published 2023)", "key": {"rice plants": {"system": "rice plants", "assay": "Root growth in rice after foliar spray, uninfected conditions", "type": "in vivo, Oryza sativa cv. Nipponbare", "settings": "14-days old rice, foliar spray 20 mM, 12 DAS, vs water control", "experimental": "(§1) Rice—Seeds of wild-type rice Oryza sativa cv. Nipponbare were obtained from USDA (GSOR-100). Seeds were germinated on wet filter paper for 4-5 days at 30° C. and seedlings were then transferred to SAP-substrate (Sand mixed with Absorbent Polymer AquaPerla®, DCM, Belgium) and further grown at 28° C., under a light regime of (day/night) 12/12. Hoagland solution was given as a source of nutrients 3 times a week.\n(§2) Reduced Ascorbic acid (AA, 20 mM), dehydroascorbic acid (DHA, 20 mM), ascorbate oxidase (AO, 20 U/ml), methyl jasmonate (MeJA, 100 μM), aminooxyacetic acid (AoA, 12.5 mM), diethyldithiocarbamic acid (DIECA, 100 μM) and ethephon (100 μM) were purchased from Sigma and dissolved in water (except MeJA that was first dissolved in a drop of ETOH) to attain the indicated concentration.\n(§3) For foliar application, all chemicals were dissolved in water and 0.02% (v/v) of Tween20 as a surfactant was added prior to spraying on aerial portions of the rice plants. Control plants were sprayed with distilled water containing 0.02% Tween20. Eight plants per treatment were sprayed until run-off with 6.5 mL of solution (at 24 h prior to nematode inoculation, in cases where infected plants were used). The substrate was covered to avoid direct contact with the roots and/or nematodes."}, "[1]": {"system": "root-knot nematode Meloidogyne graminicola", "assay": "Susceptibility assay on rice plants, soil drench", "type": "in vivo", "settings": "soil drench 24 h prior to inoculation (AA 20 mM, DHA 20 mM, AO 20 U/mL); twelve days after inoculation; vs control", "experimental": "(§4) M. graminicola originally isolated in the Philippines (Batangas) was cultured on susceptible rice plants. Second stage juveniles (J2s) were extracted using a sieve/tray extraction method and inoculation was done as described in Nahar et al., (2011). For susceptibility assays, at least two independent experiments were carried out, each time including eight plants per treatment. Twelve days after inoculation (dai), roots were stained using acid fuchsine (Nahar et al., 2011) to count galls and number of nematodes in the roots.\nas §2\nFor soil application, 6.5 mL of each solution was drenched on the substrate, 24 h prior to nematode inoculation."}, "[2]": {"assay": "Ascorbate measurements in shoots and roots of foliar sprayed rice", "type": "in vivo, Oryza sativa cv. Nipponbare", "settings": "24 h after foliar application; vs control plants", "experimental": "as §3\n[…] In each assay, 100 mg of crushed material was used per sample, and at least 4 biological replicates were analyzed per treatment. Reduced and oxidized AA were measured according to the method described in Ueda et al., 2013. Absorbance was monitored using a microplate reader (TECAN—Infinite200pro)."}, "M. graminicola": {"system": "M. graminicola", "assay": "Infection experiment with JA/ET mutant and biosynthesis inhibitors, foliar spray", "type": "in vivo, Meloidogyne graminicola", "settings": "12 days after inoculation", "experimental": "as §4, §2, §3"}, "[3]": {"system": "root-knot nematode M. graminicola", "assay": "Susceptibility assay on rice plants, foliar spray", "type": "in vivo, Meloidogyne graminicola", "settings": "foliar spray 24 h prior to inoculation (AA 20 mM, DHA 20 mM, AO 20 U/ml); 12 dai; vs control", "experimental": "as §4, §2, §3"}, "H2O2": {"system": "H2O2", "assay": "H2O2 measurements in roots (xylenol orange method)", "type": "in vivo, rice", "settings": "20 mM DHA-pretreated plants upon M. graminicola infection, 1 dpi", "experimental": "H2O2 measurements—14 days old rice plants were foliar sprayed with 20 mM DHA and 1 day later, plants were inoculated with Meloidogyne graminicola nematodes (Mg+) or mock inoculated (Mg−). One day after inoculation, samples were collected. Root samples were flash-frozen and ground under liquid nitrogen. Per sample, 100 mg of material was used to execute the xylenol orange method for H2O2 quantification described by Cheeseman (2006). After 5% trichloroacetic acid extraction, and 30 minutes reaction with the ferrous ammonium sulphate/xylenol orange (FOX) reagent, the absorbance was measured at 560 nm. The concentration was calculated by comparison with a standard curve of known H2O2 concentrations. The assay was done with 3 biological replicates, which each consisted of pooled material of 4 plants."}, "[4]": {"system": "Phenylalanine ammonia lyase (PAL)", "assay": "PAL activity measurements in treated rice plants", "type": "in vivo", "settings": "20 mM DHA foliar spray; for PAL-activity in galls in comparison with uninfected root tips: M. graminicola infected", "experimental": "PAL activity measurements—14 days old rice plants were foliar sprayed with 20 mM DHA and 1 day later, plants were inoculated with Meloidogyne graminicola nematodes (Mg+) or mock inoculated (Mg−). Three or seven days after inoculation, samples were collected. Both galls and systemic tissue (shoots) were collected. Samples were flash-frozen and ground under liquid nitrogen. Per sample, 100 mg of material was used to execute PAL-activity measurement according to Camacho-Cristobal et al. (2002). PAL was assayed by measuring the formation of trans-cinnamic acid at 290 nm. Samples were dissolved in 800 μl of 50 mM sodium phosphate as assay buffer containing 2% (w/v) poly-vinylpolypyrrolidone (PVPP), 2 mM EDTA, 18 mM-mercaptoetanol and 0.1% (v/v) Triton X-100. The homogenate was centrifuged at 8000 rpm, 4° C. for 10 min. In different 2 ml tubes, 135 μl of reaction buffer, 50 μl of 5 mM of L-phenlyalanine, and 20 μl of supernatant were mixed and absorbance at 290 nm was measured before incubation at 40° C. for 30 minutes. Then, 10 μl of hydrochloric acid was added and measurement was again done at the same wavelength. The assay was done with 4 biological replicates, which each consisted of pooled material of 4 plants."}, "[5]": {"system": "root-knot nematode Meloidogyne graminicola", "assay": "Root growth in rice after foliar spray, nematode-infected conditions (tolerance)", "type": "in vivo", "settings": "14-days old rice, foliar spray 20 mM, 250 nematodes per plant", "experimental": "as §1, §4, §2, §3"}}}
{"smiles": "O=C1O[C@H]([C@@H](O)CO)C(=O)C1=O", "note": "[DHA, (5R)-5-[(1S)-1,2-dihydroxyethyl]furan-2,3,4(5H)-trione]", "values": [{"measurement": "root length", "setting": "rice plants", "value": "significantly longer roots"}, {"measurement": "number of galls", "setting": "[1]", "value": "significantly lower number of galls"}, {"measurement": "number of nematodes", "setting": "[1]", "value": "lower number of nematodes"}, {"measurement": "amount of DHA in shoots", "setting": "[2]", "value": "significantly higher amounts of DHA"}, {"measurement": "total ascorbate level in roots", "setting": "[2]", "value": "increased"}, {"measurement": "reduction in number of galls", "setting": "M. graminicola; Osjarl (JA signalling) mutants sprayed with DHA 20 mM", "value": "25-30%"}, {"measurement": "reduction in number of galls", "setting": "M. graminicola; wild-type Nipponbare sprayed with DHA 20 mM vs unsprayed wild-type", "value": "50-70%"}, {"measurement": "number of galls", "setting": "[3]", "value": "significantly lower number of galls"}, {"measurement": "number of nematodes", "setting": "[3]", "value": "lower number of nematodes"}, {"measurement": "H2O2 levels in roots", "setting": "H2O2", "value": "induced"}, {"measurement": "PAL-activity in systemic shoot tissues of infected versus uninfected plants", "setting": "[4]; 3 dpi", "value": "strongly enhanced"}, {"measurement": "PAL-activity in systemic shoot tissues of infected versus uninfected plants", "setting": "[4]; 7 dpi", "value": "strongly enhanced"}, {"measurement": "PAL-activity in galls in comparison with uninfected root tips", "setting": "[4]; 3 dpi", "value": "strongly enhanced"}, {"measurement": "PAL-activity in galls in comparison with uninfected root tips", "setting": "[4]; 7 dpi", "value": "strongly enhanced"}, {"measurement": "root length", "setting": "[5]; 8 DAS (7 days after inoculation)", "value": "most significant improved root length"}, {"measurement": "root length", "setting": "[5]; 12 DAS (11 days after inoculation)", "value": "most significant improved root length"}]}
